Measurements from US9457004B2, “Opsin-binding ligands, compositions and methods of use” (priority 2011, dated 2016).

System: P23H opsin
Assay: Rhodopsin purification and regeneration (P23H cells treated with compound, regenerated with 9-cis-retinal, 480-500 nm absorbance)
Conditions: FIG. 1; P23H opsin treated with 20 μM during mutant protein production, relative to vehicle (DMSO) alone

CC(=O)/C=C/C1=C(C)CCCC1(C)C [β-ionone, reference compound]
regeneration of 500 nm absorbing pigment upon treatment with retinal: increase
